{"source": "patent US7659400B2", "about": "“Radiolabelled benzamide analogues, their synthesis and use in diagnostic imaging” (Washington University, priority 2003, dated 2010)", "key": {"σ1 receptors [1]": {"biological_target": "σ1 receptors (Homo sapiens, UniProt Q99720)", "sequence (Q99720 whole entry)": "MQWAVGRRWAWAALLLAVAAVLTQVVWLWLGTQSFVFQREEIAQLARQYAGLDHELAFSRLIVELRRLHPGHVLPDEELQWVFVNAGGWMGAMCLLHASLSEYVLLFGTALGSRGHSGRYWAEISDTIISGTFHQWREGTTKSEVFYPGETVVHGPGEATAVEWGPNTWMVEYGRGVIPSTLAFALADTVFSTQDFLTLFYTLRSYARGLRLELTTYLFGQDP", "settings": "cited from earlier work"}, "σ2 receptors [2]": {"biological_target": "σ2 receptors (Homo sapiens, UniProt Q5BJF2)", "sequence (Q5BJF2 whole entry)": "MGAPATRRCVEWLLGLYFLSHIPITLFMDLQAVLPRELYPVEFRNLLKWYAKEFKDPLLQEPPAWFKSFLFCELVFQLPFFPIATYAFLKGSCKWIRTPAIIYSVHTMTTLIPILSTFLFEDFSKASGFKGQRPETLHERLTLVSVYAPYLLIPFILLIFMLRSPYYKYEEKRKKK", "settings": "cited from earlier work"}, "EMT-6 tumors": {"system": "EMT-6 tumors", "experiment": "Biodistribution of 18F-labeled ligands in mice bearing EMT-6 tumors", "assay_type": "in vivo, female Balb/c mice", "description": "This example illustrates in vivo evaluation of compounds of the present teachings. All animal experiments were conducted in compliance with the Guidelines for the Care and Use of Research Animals established by Washington University's Animal Studies Committee. EMT-6 mouse mammary adenocarcinoma cells (5×10^5 cells in 100 uL of phosphate-buffered saline) were implanted subcutaneously in the scapular region of female Balb/c mice (˜2-month old and 17-22 g; Charles River Laboratories). […] Groups of at least 4 mice were used for each time point. […] After counting, the percentage of the injected dose per gram of tissue (%ID/g) was calculated. The tumor/organ ratios were calculated by dividing the %ID/g of the tumor by the %ID/g of each organ."}, "σ2 receptors [3]": {"biological_target": "T1, σ2 receptors (Mus musculus, UniProt Q8VD00)", "T1 construct": "from tissue; host or cells: EMT-6 tumours in female Balb/c mice, in vivo", "T1 sequence (Q8VD00 1-176)": "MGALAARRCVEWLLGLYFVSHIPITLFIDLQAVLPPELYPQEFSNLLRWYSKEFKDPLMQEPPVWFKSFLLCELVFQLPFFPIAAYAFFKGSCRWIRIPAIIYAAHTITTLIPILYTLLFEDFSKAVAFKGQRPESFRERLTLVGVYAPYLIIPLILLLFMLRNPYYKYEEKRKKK", "experiment": "Blocking study: co-injection of 1 mg/kg YUN-143 in EMT-6 tumor-bearing mice", "assay_type": "in vivo", "settings": "1 mg/kg YUN-143, 1 h post-injection", "description": "These blocking studies in tumor-bearing mice were conducted by co-injecting 1 mg/kg of cold N-(4-fluorobenzyl) piperidinyl-4-(3-bromophenyl)acetamide (YUN-143) with [^18F]3c or [^18F]3f."}, "σ2 receptors [4]": {"biological_target": "T2, σ2 receptors (Rattus norvegicus, UniProt Q5U3Y7)", "T2 construct": "conducted using rat liver membrane homogenates; from tissue; host or cells: rat liver membrane homogenates", "T2 sequence (Q5U3Y7 1-176)": "T1 sequence (Q8VD00 1-176) with L4V, A5T, L26M, V33L, L71F, A105V, L118I, V127I, S136N, Y169F", "experiment": "σ2 receptor binding assay, [^3H]DTG in the presence of (+)-pentazocine, rat liver membrane homogenates", "description": "The incubation time was 120 min at room temperature. […] All other procedures were identical to those described for the σ1 receptor binding assay above."}, "[5]": {"experiment": "Log D calculated using the program ACD/log D", "settings": "spacer group four carbons (3c) versus two carbons (3a)"}, "σ1 receptors [6]": {"biological_target": "T3, σ1 receptors (Cavia porcellus, UniProt Q60492)", "T3 sequence (Q60492 whole entry)": "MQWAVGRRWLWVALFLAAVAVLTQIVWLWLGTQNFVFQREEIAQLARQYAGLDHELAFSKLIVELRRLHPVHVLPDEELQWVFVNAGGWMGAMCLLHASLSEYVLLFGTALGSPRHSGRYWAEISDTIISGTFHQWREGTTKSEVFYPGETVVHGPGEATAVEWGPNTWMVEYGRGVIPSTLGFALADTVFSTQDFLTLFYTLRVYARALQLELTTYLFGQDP", "protocol": "(§1) In these assays, the novel sigma ligands were dissolved in N,N-dimethylformamide (DMF), DMSO or ethanol, and then diluted in 50 mM Tris-HCl buffer containing 150 mM NaCl and 100 mM EDTA at pH 7.4 prior to performing the σ1 and σ2 receptor binding assays. […] The samples were harvested and filtered rapidly through a 96-well fiber glass filter plate (millipore, Billerica, Mass.) that had been presoaked with 100 μL of 50 mM Tris-HCl buffer at pH 8.0 for 1 h.\n(§2) The Ki values were determine from Scatchard plots."}, "σ1 receptors [7]": {"biological_target": "T3, σ1 receptors", "experiment": "σ1 receptor binding assay, [^3H](+)-pentazocine, guinea pig brain membrane homogenates", "settings": "spacer group four carbons (3c) versus two carbons (3a)", "protocol": "as §1, §2"}}, "note": "Residue numbers refer to the chain shown, from its start. Where “and” joins values, the source holds several entries; their conditions need not be identical. Identical values can stand only once.", "data": [{"smiles": "O=C(Cc1cccc(Br)c1)NC1CCN(Cc2ccc(F)cc2)CC1", "note": "[YUN-143, N-(4-fluorobenzyl)piperidinyl-4-(3-bromophenyl) acetamide]", "values": [{"measurement": "affinity for σ1 receptors (in words)", "setting": "σ1 receptors [1]", "value": "high affinity"}, {"measurement": "affinity for σ2 receptors (in words)", "setting": "σ2 receptors [2]", "value": "high affinity"}]}, {"smiles": "COc1cc2c(cc1OC)CN(CCCCNC(=O)c1cc(I)cc(OC)c1OCC[18F])CC2", "note": "[[^18F]3f]", "values": [{"measurement": "Biodistribution: blood", "setting": "EMT-6 tumors; 5 min after i.v. injection", "value": "1.82 ± 0.25", "unit": "%ID/g"}, {"measurement": "Biodistribution: bone", "setting": "EMT-6 tumors; 5 min after i.v. injection", "value": "2.23 ± 0.56", "unit": "%ID/g"}, {"measurement": "Biodistribution: brain", "setting": "EMT-6 tumors; 5 min after i.v. injection", "value": "0.71 ± 0.09", "unit": "%ID/g"}, {"measurement": "Biodistribution: fat", "setting": "EMT-6 tumors; 5 min after i.v. injection", "value": "4.13 ± 0.86", "unit": "%ID/g"}, {"measurement": "Biodistribution: heart", "setting": "EMT-6 tumors; 5 min after i.v. injection", "value": "5.60 ± 0.45", "unit": "%ID/g"}, {"measurement": "Biodistribution: kidney", "setting": "EMT-6 tumors; 5 min after i.v. injection", "value": "19.98 ± 1.66", "unit": "%ID/g"}, {"measurement": "Biodistribution: liver", "setting": "EMT-6 tumors; 5 min after i.v. injection", "value": "15.21 ± 2.21", "unit": "%ID/g"}, {"measurement": "Biodistribution: lung", "setting": "EMT-6 tumors; 5 min after i.v. injection", "value": "18.47 ± 3.07", "unit": "%ID/g"}, {"measurement": "Biodistribution: muscle", "setting": "EMT-6 tumors; 5 min after i.v. injection", "value": "2.50 ± 0.33", "unit": "%ID/g"}, {"measurement": "Biodistribution: tumor (tumor uptake)", "setting": "EMT-6 tumors; 5 min after i.v. injection", "value": "3.05 ± 0.43", "unit": "%ID/g"}, {"measurement": "Biodistribution: blood", "setting": "EMT-6 tumors; 30 min after i.v. injection", "value": "1.23 ± 0.28", "unit": "%ID/g"}, {"measurement": "Biodistribution: bone", "setting": "EMT-6 tumors; 30 min after i.v. injection", "value": "2.01 ± 0.53", "unit": "%ID/g"}, {"measurement": "Biodistribution: brain", "setting": "EMT-6 tumors; 30 min after i.v. injection", "value": "0.27 ± 0.04", "unit": "%ID/g"}, {"measurement": "Biodistribution: fat", "setting": "EMT-6 tumors; 30 min after i.v. injection", "value": "1.36 ± 0.50", "unit": "%ID/g"}, {"measurement": "Biodistribution: heart", "setting": "EMT-6 tumors; 30 min after i.v. injection", "value": "1.54 ± 0.31", "unit": "%ID/g"}, {"measurement": "Biodistribution: kidney", "setting": "EMT-6 tumors; 30 min after i.v. injection", "value": "7.73 ± 2.25", "unit": "%ID/g"}, {"measurement": "Biodistribution: liver", "setting": "EMT-6 tumors; 30 min after i.v. injection", "value": "10.73 ± 2.98", "unit": "%ID/g"}, {"measurement": "Biodistribution: lung", "setting": "EMT-6 tumors; 30 min after i.v. injection", "value": "3.75 ± 0.58", "unit": "%ID/g"}, {"measurement": "Biodistribution: muscle", "setting": "EMT-6 tumors; 30 min after i.v. injection", "value": "0.73 ± 0.14", "unit": "%ID/g"}, {"measurement": "Biodistribution: tumor (tumor uptake)", "setting": "EMT-6 tumors; 30 min after i.v. injection", "value": "3.11 ± 0.16", "unit": "%ID/g"}, {"measurement": "Biodistribution: tumor (tumor uptake)", "setting": "EMT-6 tumors; 60 min (1 h) after i.v. injection", "value": "2.15 %ID/g and 2.15 ± 0.25 %ID/g"}, {"measurement": "Biodistribution: blood", "setting": "EMT-6 tumors; 60 min after i.v. injection", "value": "0.65 ± 0.09", "unit": "%ID/g"}, {"measurement": "Biodistribution: bone", "setting": "EMT-6 tumors; 60 min after i.v. injection", "value": "0.93 ± 0.16", "unit": "%ID/g"}, {"measurement": "Biodistribution: brain", "setting": "EMT-6 tumors; 60 min after i.v. injection", "value": "0.14 ± 0.02", "unit": "%ID/g"}, {"measurement": "Biodistribution: fat", "setting": "EMT-6 tumors; 60 min after i.v. injection", "value": "0.47 ± 0.07", "unit": "%ID/g"}, {"measurement": "Biodistribution: heart", "setting": "EMT-6 tumors; 60 min after i.v. injection", "value": "0.69 ± 0.06", "unit": "%ID/g"}, {"measurement": "Biodistribution: kidney", "setting": "EMT-6 tumors; 60 min after i.v. injection", "value": "3.50 ± 0.80", "unit": "%ID/g"}, {"measurement": "Biodistribution: liver", "setting": "EMT-6 tumors; 60 min after i.v. injection", "value": "5.57 ± 0.31", "unit": "%ID/g"}, {"measurement": "Biodistribution: lung", "setting": "EMT-6 tumors; 60 min after i.v. injection", "value": "1.51 ± 0.13", "unit": "%ID/g"}, {"measurement": "Biodistribution: muscle", "setting": "EMT-6 tumors; 60 min after i.v. injection", "value": "0.40 ± 0.07", "unit": "%ID/g"}, {"measurement": "Biodistribution: tumor (tumor uptake)", "setting": "EMT-6 tumors; 120 min (2 h) after i.v. injection", "value": "1.15 %ID/g and 1.15 ± 0.23 %ID/g"}, {"measurement": "Biodistribution: blood", "setting": "EMT-6 tumors; 120 min after i.v. injection", "value": "0.28 ± 0.01", "unit": "%ID/g"}, {"measurement": "Biodistribution: bone", "setting": "EMT-6 tumors; 120 min after i.v. injection", "value": "0.59 ± 0.09", "unit": "%ID/g"}, {"measurement": "Biodistribution: brain", "setting": "EMT-6 tumors; 120 min after i.v. injection", "value": "0.08 ± 0.01", "unit": "%ID/g"}, {"measurement": "Biodistribution: fat", "setting": "EMT-6 tumors; 120 min after i.v. injection", "value": "0.17 ± 0.05", "unit": "%ID/g"}, {"measurement": "Biodistribution: heart", "setting": "EMT-6 tumors; 120 min after i.v. injection", "value": "0.39 ± 0.04", "unit": "%ID/g"}, {"measurement": "Biodistribution: kidney", "setting": "EMT-6 tumors; 120 min after i.v. injection", "value": "1.34 ± 0.10", "unit": "%ID/g"}, {"measurement": "Biodistribution: liver", "setting": "EMT-6 tumors; 120 min after i.v. injection", "value": "2.61 ± 0.69", "unit": "%ID/g"}, {"measurement": "Biodistribution: lung", "setting": "EMT-6 tumors; 120 min after i.v. injection", "value": "0.74 ± 0.03", "unit": "%ID/g"}, {"measurement": "Biodistribution: muscle", "setting": "EMT-6 tumors; 120 min after i.v. injection", "value": "0.15 ± 0.01", "unit": "%ID/g"}, {"measurement": "tumor:fat ratio", "setting": "EMT-6 tumors; 2 h after i.v. injection", "value": "~7"}, {"measurement": "tumor:muscle ratio", "setting": "EMT-6 tumors; 2 h after i.v. injection", "value": "~8"}, {"measurement": "clearance from the blood (in words)", "setting": "EMT-6 tumors; mouse, in vivo", "value": "rapid clearance from the blood"}, {"measurement": "decrease in the tumor:fat ratio on co-injection of YUN-143", "setting": "σ2 receptors [3]", "value": "~50", "unit": "%"}, {"measurement": "decrease in the tumor:muscle ratio on co-injection of YUN-143", "setting": "σ2 receptors [3]", "value": "~50", "unit": "%"}]}, {"smiles": "COc1cc2c(cc1OC)CN(CCCCNC(=O)c1cc(C)ccc1OCCF)CC2", "note": "[compound 3c, N-[6,7-dimethoxy-3,4-dihydro-1H-isoquinolin-2-yl-butyl]-2-(2-fluoro-ethoxy)-5-methyl-benzamide]", "values": [{"measurement": "σ1:σ2 Ratio", "setting": "σ2 receptors [4]; ratio of Ki values", "value": 48}, {"measurement": "increase in the affinity for σ2 receptors relative to 3a", "setting": "σ2 receptors [4]; spacer group four carbons (3c) versus two carbons (3a)", "value": 15, "unit": "fold"}, {"measurement": "increase in the log D value relative to 3a", "setting": "[5]", "value": 0.5, "unit": "unit"}, {"measurement": "Ki", "setting": "σ1 receptors [6]", "value": "330 ± 25", "unit": "nM"}, {"measurement": "increase in the affinity for σ1 receptors relative to 3a", "setting": "σ1 receptors [7]", "value": 69, "unit": "fold"}]}]}
